Article PMC3984011 (Journal of medicinal chemistry, 2013)
Values belong to the molecule of their own block, whether it stands above or below them.

How the values were obtained:
Type in all cases: cell-based
[1] = biological target: T1, DAGLβ (diacylglycerol lipase-β) (Mus musculus, UniProt Q91WC9); test: gel-based competitive ABPP, DAGLβ-HEK293T lysate, probe […]; conditions: read-out: DAGLβ % inhibition (100 nM)
T1 sequence (Q91WC9 1-669): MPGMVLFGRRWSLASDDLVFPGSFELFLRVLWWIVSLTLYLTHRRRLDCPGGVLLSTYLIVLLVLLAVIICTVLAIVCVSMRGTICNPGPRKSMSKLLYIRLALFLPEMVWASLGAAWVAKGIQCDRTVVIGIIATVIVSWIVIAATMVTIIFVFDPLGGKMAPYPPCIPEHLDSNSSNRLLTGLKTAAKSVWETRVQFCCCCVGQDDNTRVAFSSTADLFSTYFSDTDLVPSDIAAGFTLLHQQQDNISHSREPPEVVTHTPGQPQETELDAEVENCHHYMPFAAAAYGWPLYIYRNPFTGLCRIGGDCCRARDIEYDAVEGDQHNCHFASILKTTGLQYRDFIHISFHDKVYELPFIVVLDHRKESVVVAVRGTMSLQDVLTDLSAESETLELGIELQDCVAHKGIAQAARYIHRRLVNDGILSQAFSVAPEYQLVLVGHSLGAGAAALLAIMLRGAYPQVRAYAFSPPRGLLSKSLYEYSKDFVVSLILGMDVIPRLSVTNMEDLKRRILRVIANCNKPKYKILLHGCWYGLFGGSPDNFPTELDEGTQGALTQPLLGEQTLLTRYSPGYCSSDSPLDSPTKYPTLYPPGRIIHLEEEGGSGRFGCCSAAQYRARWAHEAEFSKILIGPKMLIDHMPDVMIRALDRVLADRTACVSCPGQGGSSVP

[2] = biological target: T1, DAGLβ (diacylglycerol lipase-β); test: gel-based competitive ABPP, DAGLβ-HEK293T membrane lysate, probe […]; conditions: read-out: DAGLβ % inhibition (100 nM)
[3] = biological target: T1, DAGLβ (diacylglycerol lipase-β); test: competitive ABPP-SILAC in Neuro2A; conditions: N2a, read-out: % inhibition at 20 μM

inhibition at 0.1 µM [1]: 55.3%
Compound: COc1ccccc1-c1ccc(-c2cn(C(=O)N3CCCCC3Cc3ccccc3)nn2)cc1 (racemic) [compound 27, KT172]

Compound: O=C(N1CCCCC1Cc1ccccc1)n1cc(-c2ccc(-c3ccccc3)cc2)nn1 (stereo not drawn) [compound 11, KT109]
inhibition at 0.1 µM [2]: 60.8%

inhibition at 20 µM [3]: > 80%
Compound: Cc1cc(C)n2c1C=C1C=CC(CCC(=O)NCCCCCN(CCc3ccccc3)C(=O)n3cc(-c4ccc(OC(F)(F)F)cc4)nn3)=[N+]1[B-]2(F)F [compound 38, HT-01]
